For one assay, the system named is mice. The settings on record: cited from earlier work; for analgesic activity upon intracerebroventricular administration: mice, intracerebroventricularly, Buscher et al., Nature, 261, 423 (1976); for analgesic activity when administered parenterally: parenteral administration.
A further assay deals with mouse (Cox Standard). Nature of the assay: mouse hot plate test (mouse jump). It counts as in vivo. The settings on record: subcutaneous injection, 15 minutes after administration, hot plate 52° C., dose producing analgesia in 50% of mice. The method, then:
In the mouse hot plate test, an upright acrylic cylinder comprising, as its base, a hot plate surface which is maintained at 52° C. is used. A mouse (Cox Standard) is given, by subcutaneous injection, a predetermined amount of test compound dissolved or suspended in a suitable carrier, and, 15 minutes after administration of the test compound, the mouse is placed on the hot plate surface. The latency in seconds until the mouse jumps from the hot plate surface is measured. […] This must occur in a dose range which produces no motor incoordination or incapacitation. The following Table records ED50 results obtained from this test. By the term "ED50 " is meant that dose which produces analgesia in 50% of the mice tested. Analgesia is defined as a response latency in the presence of test compound that is equal to or greater than the control response latency plus two standard deviations. The percent analgesia data are converted to probits, and the ED50 is calculated by regression analysis of the dose-response data. Each dose response curve must have at least four points, and each point is determined using data from a minimum of ten treated mice and ten control mice.

A further assay has as its system mouse vas deferens. Description: mouse vas deferens test, electrically evoked twitch. Format: cell-based. The settings on record: concentration causing depression of 50% of the electrically evoked contraction; field stimulation 0.15 Hz, 1 msec., 40 V; 37° C. The method, then:
In the mouse vas deferens test, single mouse vas deferens from mature mice (Cox, 30-40 g.) are suspended in 3 ml. of modified Kreb's solution aerated with 95% O2 -5% CO2 and maintained at 37° C. The twitch induced by field stimulation (0.15 Hz, 1 msec., 40 V) is recorded on a polygraph via an isometric transducer. The test compound is added to the bath in 20 to 30 μl. aliquots. A dose-response curve is constructed by cumulative addition of appropriate amounts of the compound to the bath. Comparison of relative agonist potency is made on the basis of IC50 values (concentration causing depression of 50% of the electrically evoked contraction).

The text below walks through data of US4309343A, “Pharmacologically active peptides” (Eli Lilly and Company, priority 1980, dated 1982).

pIC50: −log10 of the molar value. Several values for one entry are separate records, joined by “and”; a condition that tells them apart may be missing. Equal entries are not always repeated. Structures can show the parent of a compound that is named as a salt.

Take “H-Tyr-Gly-Gly-Phe-Leu-OH. [leucine enkephalin]”: in the assay with mice, the “analgesic activity upon intracerebroventricular administration” value is “exhibit analgesic activity” and the “analgesic activity when administered parenterally” value is recorded as “practically devoid of any useful analgesic activity”.

For the compound `CSCC[C@@H](C(N)=O)N(C)C(=O)[C@H](Cc1ccccc1)NC(=O)CNC(=O)[C@@H](C)NC(=O)[C@@H](N)Cc1ccc(O)cc1` [H--LTyr--DAla--Gly--LPhe--L(N--Me)Met--NH2], in the assay with mouse (Cox Standard), the “Mouse Jump ED50” value amounted to 0.363 mg/kg. The pIC50 with mouse vas deferens is 7.91.

Take `C[C@@H](NC(=O)[C@@H](N)Cc1ccc(O)cc1)C(=O)NCC(=O)N[C@@H](Cc1ccccc1)C(=O)NCCCCCCCCNC(=O)[C@H](Cc1ccccc1)NC(=O)CNC(=O)[C@@H](C)NC(=O)[C@@H](N)Cc1ccc(O)cc1` [Example 2, N,N'-1,8-Octanediylbis-[L-tyrosyl-D-alanyl-glycyl-L-phenylalanylamide], Diacetate Salt]: the “Mouse Jump ED50” value in the assay with mouse (Cox Standard) is above 30 mg/kg. The compound also gave a pIC50 in the assay on mouse vas deferens of 7.17.

Regarding “N,N'-1,4-Butanediylbis-[L-tyrosyl-D-alanyl-glycyl-L-phenylalanyl-L-(N^α -methyl)methioninamide], Diformate Salt [Example 4]”, the “Mouse Jump ED50” value in the assay on mouse (Cox Standard) (Diformate Salt) was 5.5 mg/kg and 9.85 mg/kg.

With `C[C@@H](NC(=O)[C@@H](N)Cc1ccc(O)cc1)C(=O)NCC(=O)N[C@@H](Cc1ccccc1)C(N)=O` [H--LTyr--DAla--Gly--LPhe--NH2], the “Mouse Jump ED50” value with mouse (Cox Standard) was found to be 0.85 mg/kg. This compound also showed a pIC50 with mouse vas deferens of 6.72.

For the compound `CC(=O)O.CC(=O)O.C[C@@H](NC(=O)[C@@H](N)Cc1ccc(O)cc1)C(=O)NCC(=O)N[C@@H](Cc1ccccc1)C(=O)NCCCCNC(=O)[C@H](Cc1ccccc1)NC(=O)CNC(=O)[C@@H](C)NC(=O)[C@@H](N)Cc1ccc(O)cc1` [Example 1, N,N'-1,4-Butanediylbis-[L-tyrosyl-D-alanyl-glycyl-L-phenylalanylamide], Diacetate Salt], the “Mouse Jump ED50” value in the assay on mouse (Cox Standard) worked out at 0.370 mg/kg. For the same compound, the pIC50 in the assay on mouse vas deferens is 8.55.

With “H-Tyr-Gly-Gly-Phe-Met-OH [methionine enkephalin]”, in the assay on mice, the “analgesic activity upon intracerebroventricular administration” value is “exhibit analgesic activity” and the “analgesic activity when administered parenterally” value is listed as “practically devoid of any useful analgesic activity”.
